Reference: US6046217A, “2,3,5-trisubstituted pyridines as inhibitors of cyclooxygenase-2” (Merck Frosst Canada & Co., priority 1998, dated 2000)
pIC50: −log10 of the molar value. Read-outs that look alike come from different tables or passages of the source.

Legend:
COX-2 [1] = molecular target: T1, COX-2 (Homo sapiens, UniProt P35354); assay: cell-based; details: for IC50: CHO[hCOX-2] cells, 10 μM AA, 15 min preincubation, read-out: COX-2 (IC50 mM) CHO
T1 sequence (P35354 18-604): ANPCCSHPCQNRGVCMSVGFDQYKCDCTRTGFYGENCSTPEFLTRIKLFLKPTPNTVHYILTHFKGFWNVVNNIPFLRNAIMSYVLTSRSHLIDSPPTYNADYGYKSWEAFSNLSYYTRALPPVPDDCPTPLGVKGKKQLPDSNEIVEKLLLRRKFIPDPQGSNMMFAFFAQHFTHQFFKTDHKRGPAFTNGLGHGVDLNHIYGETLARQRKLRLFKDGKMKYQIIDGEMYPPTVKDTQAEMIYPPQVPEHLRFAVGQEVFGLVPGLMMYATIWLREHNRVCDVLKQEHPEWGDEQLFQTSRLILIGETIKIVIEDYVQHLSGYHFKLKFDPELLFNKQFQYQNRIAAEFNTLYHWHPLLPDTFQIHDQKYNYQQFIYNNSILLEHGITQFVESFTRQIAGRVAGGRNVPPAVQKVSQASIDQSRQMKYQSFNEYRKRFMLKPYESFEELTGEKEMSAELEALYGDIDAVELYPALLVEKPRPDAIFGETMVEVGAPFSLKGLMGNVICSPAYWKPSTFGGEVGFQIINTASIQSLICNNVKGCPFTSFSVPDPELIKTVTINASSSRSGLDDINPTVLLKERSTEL

COX-2 [2] = molecular target: T1, COX-2; assay: cell-based; details: human whole blood, LPS-induced PGE2, 24 h
From the text: As well, platelets in whole blood contain a large amount of the COX-1 enzyme. Immediately following blood clotting, platelets are activated through a thrombin-mediated mechanism. This reaction results in the production of thromboxane B2 (TxB2) via activation of COX-1. Thus, the effect of test compounds on TxB2 levels following blood clotting can be examined and used as an index for COX-1 activity. Therefore, the degree of selectivity by the test compound can be determined by measuring the levels of PGE2 after LPS induction (COX-2) and TxB2 following blood clotting (COX-1) in the same assay.
Fresh blood is collected in heparinized tubes by venipuncture from both male and female volunteers. The subjects have no apparent inflammatory conditions and have not taken any NSAIDs for at least 7 days prior to blood collection. Plasma is immediately obtained from a 2mL blood aliquot to use as blank (basal levels of PGE2). The remaining blood is incubated with LPS (100 μg/ml final concentration, Sigma Chem, #L-2630 from E. coli; diluted in 0.1% BSA (Phosphate buffered saline) for 5 minutes at room temperature. Five hundred […] aliquots of blood are incubated with either 2 μL of vehicle (DMSO) or 2 μL of a test compound at final concentrations varying from 10 nM to 30 μM for 24 hours at 37° C. At the end of the incubation, the blood is centrifuged at 12,000×g for 5 minutes to obtain plasma. A 100 μL aliquot of plasma is mixed with 400 μL of methanol for protein precipitation. The supernatant is obtained and is assayed for PGE2 using a radioimmunoassay kit (Amersham, RPA#530) after conversion of PGE2 to its methyl oximate derivative according to the manufacturer's procedure. […]

COX-1 = COX-1 (Homo sapiens, UniProt P23219); assay: Assay of COX-1 activity from U937 cell microsomes (PGE2); format: biochemical; set-up: Assay of COX-1 Activity from U937 Cell Microsomes; endogenous in cells; host or cells: U937 cells, 100,000 x g microsomal pellet; details: U-937 cell microsomes, 15 min preincubation; read-out: COX-1 (IC50 mM) U-937
Sequence of COX-1 (P23219 24-599): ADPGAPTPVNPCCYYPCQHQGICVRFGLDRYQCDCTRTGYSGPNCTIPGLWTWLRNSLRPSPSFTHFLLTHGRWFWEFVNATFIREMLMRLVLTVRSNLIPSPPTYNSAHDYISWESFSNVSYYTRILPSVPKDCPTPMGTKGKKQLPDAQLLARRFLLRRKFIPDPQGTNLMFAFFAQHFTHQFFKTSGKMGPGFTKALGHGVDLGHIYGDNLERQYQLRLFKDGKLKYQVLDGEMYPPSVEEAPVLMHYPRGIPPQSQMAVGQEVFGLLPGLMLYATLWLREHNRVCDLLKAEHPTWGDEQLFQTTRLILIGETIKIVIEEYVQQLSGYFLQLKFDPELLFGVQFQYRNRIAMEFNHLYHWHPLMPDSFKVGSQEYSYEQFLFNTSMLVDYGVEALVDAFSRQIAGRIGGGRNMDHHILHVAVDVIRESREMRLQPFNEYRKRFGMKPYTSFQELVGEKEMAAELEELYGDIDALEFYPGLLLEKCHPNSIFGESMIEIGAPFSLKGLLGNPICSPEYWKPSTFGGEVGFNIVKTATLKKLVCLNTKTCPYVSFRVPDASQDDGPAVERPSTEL
Method: U 937 cells are pelleted by centrifugation at 500×g for 5 min and washed once with phosphate-buffered saline and repelleted. Cells are resuspended in homogenization buffer consisting of 0.1 M Tris-HCl, pH 7.4, 10 mM EDTA, […] leupeptin, 2 μg/ml soybean trypsin inhibitor, 2 μg/ml aprotinin and 1 mM phenyl methyl sulfonyl fluoride. The cell suspension is sonicated 4 times for 10 sec and is centrifuged at 10,000×g for 10 min at 4° C. The supernatant is centrifuged at 100,000×g for 1 hr at 4° C. The 100,000×g microsomal pellet is resuspended in 0.1 M Tris-HCl, pH 7.4, 10 mM EDTA to approximately 7 mg protein/ml and stored at -80° C.
Microsomal preparations are thawed immediately prior to use, subjected to a brief sonication, and then diluted to a protein concentration of 125 μg/ml in 0.1 M Tris-HCl buffer, pH 7.4 containing 10 mM EDTA, 0.5 mM phenol, 1 mM reduced glutathione and 1 μM hematin. Assays are performed in duplicate in a final volume of 250 μl. Initially, 5 μl of DMSO vehicle or drug in DMSO are added to 20 μl of 0.1 M Tris-HCl buffer, pH 7.4 containing 10 mM EDTA in wells of a 96-deepwell polypropylene titre plate. 200 μl of the microsomal preparation are then added and pre-incubated for 15 min at room temperature before addition of 25 μl of […] arachidonic acid in […] Tris-HCl and 10 mM EDTA, pH 7.4. Samples are incubated for 40 min at room temperature and the reaction is stopped by the addition of 25 μl of 1 N HCl. Samples are neutralized with 25 μl of 1 N NaOH prior to quantitation of PGE2 content by radioimmunoassay (Dupont-NEN or Amersham assay kits). Cyclooxygenase activity is defined as the difference between PGE2 levels in samples incubated in the presence of arachidonic acid and ethanol vehicle.
In the assay, inhibition is determined by measuring the amount of prostaglandin E2 (PGE2) synthesized in the presence of arachidonic acid, cyclooxygenase-1 or cyclooxygenase-2 and a putative inhibitor.

| IC50 (COX-1) | pIC50 (COX-2 [1]) | IC50 (COX-2 [2]; COX-2 (IC50 mM) HWB) | Structure (SMILES) | IC50 (COX-2 [1]) | IC50 (COX-2 [2]; read-out: COX-2 (IC50 mM) HWB) |
| --- | --- | --- | --- | --- | --- |
| 0.001 to 0.003 mM | 7.30 | 0.0005 mM | CC(CO)Sc1ncc(C(F)(F)F)cc1-c1ccc(S(C)(=O)=O)cc1 (centres unmarked) [Example 50, 2-(3-Hydroxy-2-thiopropyloxy)-3-(4-methylsulfonyl)phenyl-5-trifluoromethylpyridine] |  |  |
| > 0.01 mM |  |  | CS(=O)(=O)c1ccc(-c2cc(C(F)(F)F)cnc2O[C@@H]2CCC[C@@H]2O)cc1 (relative stereo) [Example 29, 2-(cis-2-Hydroxycyclopentyloxy)-3-(4-methylsulfonyl)phenyl-5-trifluoromethylpyridine] |  |  |
| 0.003 to 0.01 mM |  |  | CS(=O)(=O)c1ccc(-c2cc(C(F)(F)F)cnc2O[C@H]2CCC[C@@H]2O)cc1 (relative stereo) [Example 30, 2-(trans-2-Hydroxycyclopentyloxy)-3-(4-methylsulfonyl)phenyl-5-trifluoromethylpyridine] |  |  |
| > 0.01 mM |  |  | C[C@]1(O)CCC[C@H]1Oc1ncc(Cl)cc1-c1ccc(S(C)(=O)=O)cc1 (relative stereo) [Example 34, 5-Chloro-2-(cis-2-hydroxy-2-methylcyclopentyloxy)-3-(4-methylsulfonyl)phenylpyridine] | 100 nM | 0.0017 mM |
| 0.001 to 0.003 mM |  |  | C[C@@]1(O)CCC[C@H]1Oc1ncc(C(F)(F)F)cc1-c1ccc(S(C)(=O)=O)cc1 (relative stereo) [Example 35, 2-(trans-2-Hydroxy-2-methylcyclopentyloxy)-3-(4-methylsulfonyl)phenyl-5-trifluoromethylpyridine] |  |  |
| 0.001 to 0.003 mM |  |  | CCC(C)(O)CSc1ncc(C(F)(F)F)cc1-c1ccc(S(C)(=O)=O)cc1 (single isomer, unassigned; (-)) [Example 46, (-)-2-(2-Hydroxy-2-methyl-1-thiobutyloxy)-3-(4-methylsulfonyl)phenyl-5-trifluoromethylpyridine] |  |  |
| 0.003 to 0.01 mM |  |  | CCC(C)(O)CSc1ncc(C(F)(F)F)cc1-c1ccc(S(C)(=O)=O)cc1 (single isomer, unassigned; (+)) [Example 45, (+)-2-(2-Hydroxy-2-methyl-1-thiobutyloxy)-3-(4-methylsulfonyl)phenyl-5-trifluoromethylpyridine] |  |  |

| Structure (SMILES) | IC50 (COX-1) | pIC50 (COX-2 [1]) | IC50 (COX-2 [2]; COX-2 (IC50 mM) HWB) | IC50 (COX-2 [1]) | IC50 (COX-2 [2]; read-out: COX-2 (IC50 mM) HWB) |
| --- | --- | --- | --- | --- | --- |
| C[C@@H](Oc1ncc(Cl)cc1-c1ccc(S(C)(=O)=O)cc1)C(C)(C)O [Example 18, 5-Chloro-2-((2R)-3-Hydroxy-3-methyl-2-butyloxy)-3-(4-methylsulfonyl)phenylpyridine] | > 0.01 mM |  |  | 80 nM | 0.0004 mM |
| C[C@H](O)CCOc1ncc(C(F)(F)F)cc1-c1ccc(S(C)(=O)=O)cc1 [Example 38, 2-((3S)-3-Hydroxy-1-butyloxy)-3-(4-methylsulfonyl)phenyl-5-trifluoromethylpyridine] | 0.003 to 0.01 mM |  |  | 260 nM | 0.0059 mM |
| CC(C)(O)CCOc1ncc(C(F)(F)F)cc1-c1ccc(S(C)(=O)=O)cc1 [Example 40, 2-(3-Hydroxy-3-methyl-1-butyloxy)-3-(4-methylsulfonyl)phenyl-5-trifluoromethylpyridine] | 0.01 mM |  |  | 200 nM | 0.0039 mM |
| CCC(O)(CC)COc1ncc(Cl)cc1-c1ccc(S(C)(=O)=O)cc1 [Example 9, 5-Chloro-2-(2-hydroxy-2-ethyl-1-butyloxy)-3-(4-methylsulfonyl)phenylpyridine] | > 0.01 mM |  |  | 70 nM | 0.0016 mM |
| COC(C)(C)COc1ncc(C(F)(F)F)cc1-c1ccc(S(C)(=O)=O)cc1 [Example 6, 2-(2-Methoxy-2-methyl-1-propyloxy)-3-(4-methylsulfonyl)phenyl-5-trifluoromethylpyridine] | 0.003 to 0.01 mM |  |  | 30 nM | < 0.0004 mM |
| CS(=O)(=O)c1ccc(-c2cc(C(F)(F)F)cnc2OCC2(O)CCC2)cc1 [Example 12, 2-(1-Hydroxycyclobutyl)methoxy-3-(4-methylsulfonyl)phenyl-5-trifluoromethylpyridine] | > 0.01 mM |  |  | 50 nM | 0.0013 mM |
